Entries after “also recorded” stand apart in the source; their conditions may differ. Positions of bridges follow the written chain, without caps; N, C: chain ends. Residues, ends and D or L forms follow the SMILES beside them. No end group written: not given here.
Columns and labels:
[1] = tested on: BxPC-3 human pancreatic cancer cells; conditions: 24 h
Procedure: (§1) 10,000 HT29 or SW480 human colon cancer cells, BxPC-3 human pancreatic cancer cells, and MCF7 and MDA-MB-231 breast cancer cells were obtained from American Type Culture Collection (ATTC), Manassas, Va., and were seeded in separate 96-well plates. After treatment with various concentrations (6.25 μM, 12.5 μM, 25 μM, 50 μM, 100 μM, or 200 μM) of test peptide for 24 h, cells were stained with MTT (3-(4,5-Dimethyl-2-thiazolyl)-2,5-diphenyl-2H-tetrazolium bromide, from Sigma-Aldrich) following the instructions of the manufacturer. Before dissolving MTT in SDS, the HT29 and SW480 cells were photographed using a digital camera connected with a phase-contrast microscope. (FIG. 2A1-8, and FIG. 2B1-6). Cells that are alive convert MTT into formazan in their active mitochondria and appear dark purple; dead cells are not stained by MTT and appear colorless.
(§2) The IC50 is the concentration of the test agent that inhibits cell growth by 50% at 24 hours of exposure. IC50s were determined using the MTT assay or using the cell Titer-Glo method and following the instructions of the manufacturer ([…]). […] (Sun, Y., and Rigas, B., (2008), Cancer Res., 68(20): 8269-8277).

MCF7 breast cancer cells = conditions: 24 h
Procedure: as §1, §2

[2] = tested on: MDA-MB-231 breast cancer cells; conditions: 24 h
Procedure: as §1, §2

[3] = tested on: HT29, SW480, BxPC3, MCF7, and MDA-MB-231 cell lines; assay type: cell-based, human; conditions: 24 h
Excerpt: (FIG. 2A1-8, and FIG. 2B1-6).

[4] = tested on: SW480 human colon cancer cells; test: Flow cytometry forward/side scatter, proportion of dead cells, SW480; assay type: cell-based
Procedure: (§3) SW480 human colon cancer cells and MCF7 breast cancer cells were grown following the instructions of American Type Culture Collection (ATCC, Monassas, Va.). The cells were treated with the test peptides (YJB01, YJB05, or YJB06) for 24 hrs at concentrations ranging from 0 μM, to 200 μM and subjected to flow cytometric analysis following standard protocols.
(§4) SW480 human colon cancer cells and MCF7 breast cancer cells were grown following the instructions of American Type Culture Collection (ATCC, Monassas, Va.). The cells were treated with the test peptides for 24 hrs at concentrations ranging from 0 μM, to 200 μM and subjected to flow cytometry analysis following standard protocols. […] The circumscribed (gated, outlined) areas in the figure indicate dead cells; dead cells generally have higher density (side scatter) and smaller size (forward scatter) than living cells.

[5] = tested on: MCF-7 human breast cancer cells; test: Flow cytometry forward/side scatter, proportion of dead cells, MCF7; assay type: cell-based; conditions: 200 μM, 24 hr
Procedure: as §3, §4

[6] = tested on: SW480 human colon cancer cells; test: Annexin V-FITC flow cytometry for apoptotic cells, SW480; assay type: cell-based; conditions: 24 hrs, 0 μM to 200 μM
Procedure: (§5) SW480 human colon cancer cells and MCF7 breast cancer cells were grown following the instructions of American Type Culture Collection (ATCC, Monassas, Va.). The cells were treated with the test peptides (YJB01, YJB05, or YJB06) for 24 hrs at concentrations ranging from 0 μM, to 200 μM. After treatment, cells were trypsinized and stained with Annexin V-FITC (100× dilution) for 15 minutes. Annexin V-FITC fluorescence intensities were analyzed by FACSCaliber (BD Bioscience) following standard protocols. Annexin V (+) cells are apoptotic cells.
When cells undergo apoptosis, the inner membrane phospholipid, phosphotidylserine (PS), flips to the outer membrane and can be recognized by the […]. The green FITC fluorescence can be determined by flow cytometry and thus Annexin V (+) cells are apoptotic cells.
as §5, with “In this study, SW480” for “SW480”, “human” for “human colon”, “treatment” for “treatment,”, “protocols.” for “protocols. Annexin V (+) cells are apoptotic cells.”

thioredoxin 1 = target: T1, thioredoxin 1 (Homo sapiens, UniProt P10599); test: Thioredoxin 1 redox state, native PAGE immunoblot in SW480 cells; assay type: cell-based; conditions: YJB01 20 μM and 100 μM, YJB05 100 μM
T1 construct: endogenous in cells; host or cells: SW480 human colon cancer cells
T1 sequence (P10599 1-105): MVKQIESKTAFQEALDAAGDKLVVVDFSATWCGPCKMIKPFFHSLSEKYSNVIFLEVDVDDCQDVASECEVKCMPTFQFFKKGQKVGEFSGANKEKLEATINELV
Procedure: (§6) SW480 human colon cancer cells were grown following the instructions of American Type Culture Collection (ATCC, Monassas, Va.). Cells were treated with either no peptide, with YBJ01 (at 20 μM and 100 μM), or with YBJ05 (at 100 μM). 10^6 cells were lysed in 6 mol/L guanidinium chloride, 50 mmol/L Tris/HCL (pH 8.3), 3 mmol/L EDTA, and 0.5% Triton-X-100 containing 50 mmol/L iodoacetic acid. After 30 min at 37° C., the excess idoacetic acid was removed using Microspin G-25 columns (GE Healthcare Life Sciences). Oxidized and reduced thioredxoin was separated by native PAGE. The gel was electroblotted onto a nitrocellulose membrane and probed with thioredoxin antibodies, followed by HRP-conjugated secondary antibody. Bands corresponding to thioredoxin were visualized by ECL.
as §6, with “10^6 cells from each sample were lysed” for “10^6 cells were lysed”, “native PAGE. […]” for “native PAGE. The gel was electroblotted onto a nitrocellulose membrane and probed with thioredoxin antibodies, followed by HRP-conjugated secondary antibody. Bands corresponding to thioredoxin were visualized by ECL.”

peroxiredoxin 1 = test: Oxidized peroxiredoxin 1 (Prx-O3) immunoblot in SW480 cells; assay type: cell-based, human; conditions: 1 h, YJB01 20 μM and 100 μM, YJB05 100 μM
Procedure: (§7) The oxidized peroxiredoxin 1 (sulphonic-peroxiredoxin, Prx-O3) was detected by using the specific anti-Prx-O3 antibody. Briefly, after SW480 cells were treated with either no peptide, with YBJ01 (at 20 μM and 100 μM), or with YJB05 (at 100 μM) for 1 h, total cell lysates were collected and separated on the SDS-PAGE gel. The gel was electroblotted onto a nitrocellulose membrane and probed with anti-Prx-O3, followed by HRP-conjugated secondary antibody. Bands corresponding to sulphonic-peroxiredoxin were visualized by ECL
as §7, with “anti-Prx-O3 antibody” for “anti-Prx-O3 antibody.”, “with YBJ05” for “with YJB05”

CC[C@H](C)[C@H](NC(=O)[C@H](CCCCN)NC(=O)[C@@H](NC(=O)[C@H](CCC(N)=O)NC(=O)[C@H](CCCNC(=N)N)NC(=O)[C@@H]1CCCN1C(=O)[C@H](CCCNC(=N)N)NC(=O)[C@@H]1CSSC[C@H](NC(=O)[C@@H](N)[C@@H](C)O)C(=O)N2CCC[C@H]2C(=O)N[C@@H](Cc2ccc(O)cc2)C(=O)N1)[C@@H](C)CC)C(=O)N[C@@H](Cc1c[nH]c2ccccc12)C(=O)N[C@@H](Cc1ccccc1)C(=O)N[C@@H](CCC(N)=O)C(=O)N[C@@H](CC(N)=O)C(=O)N[C@@H](CCCNC(=N)N)C(=O)N[C@@H](CCCNC(=N)N)C(=O)N[C@@H](CCSC)C(=O)N[C@@H](CCCCN)C(=O)N[C@@H](Cc1c[nH]c2ccccc12)C(=O)N[C@@H](CCCCN)C(=O)N[C@@H](CCCCN)C(=O)O [YJB03]
IC50 [1]: 153 µM
IC50 (MCF7 breast cancer cells): 21 µM
IC50 [2]: 309 µM

CC[C@H](C)[C@H](NC(=O)[C@H](CCCCN)NC(=O)[C@@H](NC(=O)[C@H](CCC(N)=O)NC(=O)[C@H](CCCNC(=N)N)NC(=O)[C@@H]1CCCN1C(=O)[C@H](C)NC(=O)[C@@H]1CCCN1C(=O)[C@@H]1CSSC[C@H](NC(=O)[C@@H](N)C(C)C)C(=O)N2CCC[C@H]2C(=O)N[C@@H](C(C)C)C(=O)N1)[C@@H](C)CC)C(=O)N[C@@H](Cc1c[nH]c2ccccc12)C(=O)N[C@@H](Cc1ccccc1)C(=O)N[C@@H](CCC(N)=O)C(=O)N[C@@H](CC(N)=O)C(=O)N[C@@H](CCCNC(=N)N)C(=O)N[C@@H](CCCNC(=N)N)C(=O)N[C@@H](CCSC)C(=O)N[C@@H](CCCCN)C(=O)N[C@@H](Cc1c[nH]c2ccccc12)C(=O)N[C@@H](CCCCN)C(=O)N[C@@H](CCCCN)C(=O)O [YJB04] (H-VCPVCPAPRQIKIWFQNRRMKWKK-OH; disulfide 2-5; N-terminus and C-terminus assumed)
IC50 [1]: 123 µM
IC50 (MCF7 breast cancer cells): 25 µM
IC50 [2]: 195 µM

C[C@H](N)C(=O)N[C@H](C(=O)N[C@@H](Cc1c[nH]c2ccccc12)C(=O)N[C@H]1CSSC[C@@H](C(=O)O)NC(=O)[C@@H]2CCCN2C(=O)CNC1=O)[C@@H](C)O [YJB06] (H-ATWCGPC-OH; disulfide 4-7 (inferred); N-terminus and C-terminus assumed)
IC50 [3]: > 2000 µM
cell killing effect, SW480 ([4]; 24 hrs, 0 μM to 200 μM): failed to kill SW480 colon cancer cells

ATWAGPAKPRQIKIWFQNRRMKWKK [YJB05, reference compound]
IC50 [3]: > 2000 µM
dead cells, SW480 ([4]; 200 μM, 24 hr): 21.62%
dead cells, MCF7 [5]: 12.52%
apoptosis, Annexin V (+) cells, SW480 [6]: ineffective
induction of the oxidized form of thioredoxin 1 (thioredoxin 1): failed to induce oxidation of thioredoxin 1; also recorded: fails to induce oxidation
induction of the oxidized form of peroxiredoxin 1 (peroxiredoxin 1): fails to induce oxidation
